The text below walks through data of ChEMBL document CHEMBL1909046, “DrugMatrix in vitro pharmacology data”.

Data set [1] has as its target T1, 5-hydroxytryptamine receptor 2C (Homo sapiens, UniProt P28335).
T1 sequence (P28335 whole entry): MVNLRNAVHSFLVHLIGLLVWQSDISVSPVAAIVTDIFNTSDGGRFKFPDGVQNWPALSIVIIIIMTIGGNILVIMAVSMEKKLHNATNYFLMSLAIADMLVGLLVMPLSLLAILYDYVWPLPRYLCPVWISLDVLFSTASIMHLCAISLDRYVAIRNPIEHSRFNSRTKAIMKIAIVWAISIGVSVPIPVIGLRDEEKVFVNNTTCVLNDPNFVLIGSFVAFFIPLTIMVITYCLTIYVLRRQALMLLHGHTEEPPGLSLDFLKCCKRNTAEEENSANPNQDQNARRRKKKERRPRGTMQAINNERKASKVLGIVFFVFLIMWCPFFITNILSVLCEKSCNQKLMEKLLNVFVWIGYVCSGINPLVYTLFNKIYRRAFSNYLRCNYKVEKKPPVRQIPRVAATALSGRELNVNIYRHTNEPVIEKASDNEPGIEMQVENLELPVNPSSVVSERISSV
Kind of data set: DRUGMATRIX: Serotonin (5-Hydroxytryptamine) 5-HT2C radioligand binding (ligand: [3H] Mesulergine). The data set is classed as cell membranes, CHO-K1, Membrane. Particulars: Not Active = under 50% inhibition at 10 µM.

The target in data set [2] is Cytochrome P450 2C9 (Homo sapiens, UniProt P11712). Particulars: bti-tn-5b1-4. Also: in other assays of this panel Not Active means under 50% inhibition at 10 µM.
Chain of Cytochrome P450 2C9 (P11712 whole entry): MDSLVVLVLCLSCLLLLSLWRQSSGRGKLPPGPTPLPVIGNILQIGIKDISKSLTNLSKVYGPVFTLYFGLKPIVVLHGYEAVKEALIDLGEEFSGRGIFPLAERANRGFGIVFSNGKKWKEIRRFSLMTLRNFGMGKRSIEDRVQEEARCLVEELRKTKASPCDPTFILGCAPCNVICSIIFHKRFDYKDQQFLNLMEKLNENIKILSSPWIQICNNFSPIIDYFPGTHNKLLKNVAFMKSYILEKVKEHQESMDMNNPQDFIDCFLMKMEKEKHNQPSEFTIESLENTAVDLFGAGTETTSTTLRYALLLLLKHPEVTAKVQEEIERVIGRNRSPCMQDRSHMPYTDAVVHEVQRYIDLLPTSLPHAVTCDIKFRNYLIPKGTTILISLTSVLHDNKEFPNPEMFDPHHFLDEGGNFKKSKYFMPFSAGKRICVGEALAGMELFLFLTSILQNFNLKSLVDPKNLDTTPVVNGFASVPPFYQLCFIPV
Data set [3] deals with T2, Thromboxane-A synthase (Homo sapiens, UniProt P24557).
T2 sequence (P24557 whole entry): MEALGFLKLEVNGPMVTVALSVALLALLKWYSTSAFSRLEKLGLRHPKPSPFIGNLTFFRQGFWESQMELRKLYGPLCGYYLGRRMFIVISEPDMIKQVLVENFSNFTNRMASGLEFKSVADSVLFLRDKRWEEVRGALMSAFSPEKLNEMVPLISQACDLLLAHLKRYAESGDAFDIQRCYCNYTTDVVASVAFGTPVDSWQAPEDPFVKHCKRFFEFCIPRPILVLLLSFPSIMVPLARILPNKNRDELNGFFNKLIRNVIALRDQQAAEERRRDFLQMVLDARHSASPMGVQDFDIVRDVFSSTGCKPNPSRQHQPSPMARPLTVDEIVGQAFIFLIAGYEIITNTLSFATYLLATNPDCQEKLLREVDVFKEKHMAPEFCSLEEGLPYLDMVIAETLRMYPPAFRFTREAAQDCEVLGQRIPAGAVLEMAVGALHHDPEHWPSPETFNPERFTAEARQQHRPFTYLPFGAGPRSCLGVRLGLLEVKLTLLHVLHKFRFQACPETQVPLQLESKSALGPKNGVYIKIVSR
Kind of data set: biochemical. The data set is classed as tissue-based, Platelet. Particulars: platelet.

Data set [4] addresses T3, Type-2 angiotensin II receptor (Homo sapiens, UniProt P50052).
T3 sequence (P50052 whole entry): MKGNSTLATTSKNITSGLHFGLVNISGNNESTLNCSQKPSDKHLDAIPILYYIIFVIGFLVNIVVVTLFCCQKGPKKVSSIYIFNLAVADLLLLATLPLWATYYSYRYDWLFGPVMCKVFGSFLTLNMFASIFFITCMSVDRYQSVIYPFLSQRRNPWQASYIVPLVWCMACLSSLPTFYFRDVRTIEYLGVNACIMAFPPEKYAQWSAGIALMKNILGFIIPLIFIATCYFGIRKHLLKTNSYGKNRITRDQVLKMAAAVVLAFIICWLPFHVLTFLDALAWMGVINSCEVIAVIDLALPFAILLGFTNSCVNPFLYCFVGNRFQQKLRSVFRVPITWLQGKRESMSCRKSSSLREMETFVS
Type of data set: cell-based. Particulars: cho-k1.

A short description of data set [5]: DRUGMATRIX: Phorbol Ester radioligand binding (ligand: [3H] PDBu). Particulars: Not Active = under 50% inhibition at 10 µM. The data set is classed as cell membranes, Mus musculus, ICR, Brain, Membrane.
Data set [6] has as its target T4, Calcitonin receptor (Homo sapiens, UniProt P30988). Also: in other assays of this panel Not Active means under 50% inhibition at 10 µM.
T4 sequence (P30988 whole entry): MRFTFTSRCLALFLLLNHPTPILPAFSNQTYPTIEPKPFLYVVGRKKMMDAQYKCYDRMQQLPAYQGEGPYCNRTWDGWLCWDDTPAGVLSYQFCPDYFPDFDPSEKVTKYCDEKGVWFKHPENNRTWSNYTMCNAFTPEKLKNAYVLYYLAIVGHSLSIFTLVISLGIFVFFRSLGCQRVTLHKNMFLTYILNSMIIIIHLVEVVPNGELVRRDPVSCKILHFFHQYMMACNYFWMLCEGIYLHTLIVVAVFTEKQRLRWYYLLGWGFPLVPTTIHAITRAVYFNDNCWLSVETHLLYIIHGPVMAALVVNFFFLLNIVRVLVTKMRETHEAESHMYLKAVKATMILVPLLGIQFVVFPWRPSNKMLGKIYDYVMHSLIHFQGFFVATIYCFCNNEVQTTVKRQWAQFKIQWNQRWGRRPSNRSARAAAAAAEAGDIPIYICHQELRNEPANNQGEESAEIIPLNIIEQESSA
Type of data set: cell membranes, Membrane. Particulars: t47d.

In data set [7] the target is Beta-1 adrenergic receptor (Homo sapiens, UniProt P08588). Kind of data set: DRUGMATRIX: Adrenergic beta1 radioligand binding (ligand: [125I] Cyanopindolol). Particulars: cho-k1; Not Active = under 50% inhibition at 10 µM. Type of data set: cell membranes, CHO-K1, Membrane.
Chain of Beta-1 adrenergic receptor (P08588 whole entry): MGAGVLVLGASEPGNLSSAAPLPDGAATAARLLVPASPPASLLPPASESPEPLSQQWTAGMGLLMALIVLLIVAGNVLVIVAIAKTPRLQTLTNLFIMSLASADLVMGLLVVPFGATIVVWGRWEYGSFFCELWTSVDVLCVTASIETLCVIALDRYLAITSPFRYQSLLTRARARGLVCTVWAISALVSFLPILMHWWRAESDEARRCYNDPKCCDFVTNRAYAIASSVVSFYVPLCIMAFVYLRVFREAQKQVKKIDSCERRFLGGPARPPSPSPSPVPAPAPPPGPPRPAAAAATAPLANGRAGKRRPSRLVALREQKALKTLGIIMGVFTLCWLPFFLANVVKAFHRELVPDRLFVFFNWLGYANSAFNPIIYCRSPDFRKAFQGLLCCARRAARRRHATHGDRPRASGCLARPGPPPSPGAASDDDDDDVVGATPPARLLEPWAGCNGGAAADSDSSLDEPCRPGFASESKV
The nature of data set [8]: DRUGMATRIX: Interleukin IL-1 radioligand binding (ligand: [125I] interleukin 1beta). Particulars: nih3t3; Not Active = under 50% inhibition at 10 µM. The data set is classed as cell membranes, Membrane.

In the case of `C=C(CC)C(=O)c1ccc(OCC(=O)O)c(Cl)c1Cl` [ETHACRYNIC ACID], the IC50 result in data set [1] (cho-k1), in data set [2], in data set [3], in data set [4], in data set [5] and in data set [6] was “Not Active” throughout. Also, the IC50 result in data set [7] and in data set [8] was “Not Active” throughout. The Ki entry in data set [2], in data set [5] and in data set [8] was “Not Active” each time.
Consider `C#C[C@]1(O)CC[C@H]2[C@@H]3CCc4cc(O)ccc4[C@H]3CC[C@@]21C` [ETHINYL ESTRADIOL], for which the concentration for half-maximal inhibition (IC50) entry in data set [1] (cho-k1), in data set [2], in data set [3], in data set [4], in data set [5] and in data set [6] was “Not Active” each time. In addition, the IC50 entry in data set [7] and in data set [8] was “Not Active” in each case. Moreover, the Ki result in data set [2], in data set [5] and in data set [8] was “Not Active” in each case.
As to `OCCO` [ETHYLENE GLYCOL], the IC50 result in data set [1] (cho-k1), in data set [2], in data set [3], in data set [4], in data set [5] and in data set [6] was “Not Active” in each case. For the same compound, the IC50 entry in data set [7] and in data set [8] was “Not Active” each time. For the same compound, the Ki result in data set [2], in data set [5] and in data set [8] was “Not Active” throughout.
As to `CC(=O)OCC(CCn1cnc2cnc(N)nc21)COC(C)=O` [FAMCICLOVIR], the IC50 result in data set [1] (cho-k1), in data set [2], in data set [3], in data set [4], in data set [5] and in data set [6] was “Not Active” in each case. The IC50 result in data set [7] and in data set [8] was “Not Active” throughout. For the same compound, the Ki result in data set [2], in data set [5] and in data set [8] was “Not Active” in each case.
Turning to `O=C(O)Cc1ccc(-c2ccccc2)cc1` [FELBINAC], the 50% inhibitory concentration (IC50) result in data set [1] (cho-k1), in data set [2], in data set [3], in data set [4], in data set [5] and in data set [6] was “Not Active” throughout. The IC50 result in data set [7] and in data set [8] was “Not Active” in each case. For the same compound, the Ki result in data set [2], in data set [5] and in data set [8] was “Not Active” each time.
On to `CC(C(=O)O)c1ccc(-c2ccccc2)c(F)c1` (centres undefined) [FLURBIPROFEN], for which the IC50 result in data set [1] (cho-k1), in data set [2], in data set [3], in data set [4], in data set [5] and in data set [6] was “Not Active” throughout. For the same compound, the IC50 entry in data set [7] and in data set [8] was “Not Active” each time. Further, the Ki entry in data set [2], in data set [5] and in data set [8] was “Not Active” throughout.
For `NC[C@@H]1O[C@H](O[C@H]2[C@@H](O)[C@H](O[C@@H]3[C@@H](O)[C@H](N)C[C@H](N)[C@H]3O[C@H]3O[C@H](CN)[C@@H](O)[C@H](O)[C@H]3N)O[C@@H]2CO)[C@H](N)[C@@H](O)[C@@H]1O` [FRAMYCETIN], the IC50 entry in data set [1] (cho-k1), in data set [2], in data set [3], in data set [4], in data set [5] and in data set [6] was “Not Active” throughout. Moreover, the IC50 entry in data set [7] and in data set [8] was “Not Active” throughout. The Ki entry in data set [2], in data set [5] and in data set [8] was “Not Active” in each case.
For the compound `C[C@H]([C@](O)(Cn1cncn1)c1ccc(F)cc1F)S(C)(=O)=O` [GENACONAZOLE], the concentration for half-maximal inhibition (IC50) entry in data set [1] (cho-k1), in data set [2], in data set [3], in data set [4], in data set [5] and in data set [6] was “Not Active” in each case. For the same compound, the 50% inhibitory concentration (IC50) entry in data set [7] and in data set [8] was “Not Active” in each case. Further, the Ki entry in data set [2], in data set [5] and in data set [8] was “Not Active” in each case.
In the case of `Cc1c(F)c(N2CCNC(C)C2)cc2c1c(=O)c(C(=O)O)cn2C1CC1` (centres undefined) [GREPAFLOXACIN], the IC50 result in data set [1] (cho-k1), in data set [2], in data set [3], in data set [4], in data set [5] and in data set [6] was “Not Active” throughout. Besides, the IC50 result in data set [7] and in data set [8] was “Not Active” each time. The Ki entry in data set [2], in data set [5] and in data set [8] was “Not Active” each time.
Regarding `N=C(N)N/N=C/c1c(Cl)cccc1Cl` [GUANABENZ], the IC50 was 204 nM in data set [1] (read-out: IC50); “Not Active” in data set [2]; “Not Active” in data set [3]; “Not Active” in data set [4]; “Not Active” in data set [5]; “Not Active” in data set [6]. Besides, the IC50 entry in data set [7] and in data set [8] was “Not Active” in each case. Moreover, the Ki was 107 nM in data set [1] (read-out: Ki), “Not Active” in data set [2], “Not Active” in data set [5] and “Not Active” in data set [8].
`C[C@]12CCC(=O)C=C1CC[C@@H]1[C@@H]2[C@@H](O)C[C@@]2(C)[C@H]1CC[C@]2(O)C(=O)CO` [HYDROCORTISONE]: the half-inhibitory concentration (IC50) result in data set [1] (cho-k1), in data set [2], in data set [3], in data set [4], in data set [5] and in data set [6] was “Not Active” throughout. The IC50 entry in data set [7] and in data set [8] was “Not Active” each time. The Ki entry in data set [2], in data set [5] and in data set [8] was “Not Active” throughout.
For the compound `CC(C(=O)O)c1ccc(CC2CCCC2=O)cc1` (centres undefined) [LOXOPROFEN], the half-inhibitory concentration (IC50) result in data set [1] (cho-k1), in data set [2], in data set [3], in data set [4], in data set [5] and in data set [6] was “Not Active” in each case. The IC50 result in data set [7] and in data set [8] was “Not Active” throughout. Moreover, the inhibition constant Ki entry in data set [2], in data set [5] and in data set [8] was “Not Active” in each case.
Turning to `Cc1cccc(Nc2ccccc2C(=O)O)c1C` [MEFENAMIC ACID], the IC50 entry in data set [1] (cho-k1), in data set [2], in data set [3], in data set [4], in data set [5] and in data set [6] was “Not Active” throughout. Also, the IC50 result in data set [7] and in data set [8] was “Not Active” throughout. The Ki result in data set [2], in data set [5] and in data set [8] was “Not Active” in each case.

One may read the IC50 as the concentration needed to halve the response being measured. Usually Ki stands for a dissociation constant, usually derived from enzyme kinetics or from competition with a known ligand.
